Reference: US20250221963A1 (GH RESEARCH IRELAND LIMITED, priority 2022, published 2025)

Key:
human hepatocytes [1] = assay: In vitro metabolism identification study in human hepatocytes; details: for Relative Proportion of compounds identified: 5-MeO-DMT free base incubated up to 120 minutes at 10 μM; for Presence in subsequent assays: metabolites of 5-MeO-DMT
Description: For incubations with cryopreserved hepatocytes, the 2 mM stock solution was diluted with Leibovitz L-15 medium to a concentration of 20 μM or 2 μM. An aliquot (250 μL) of the 20 μM and 2 μM test substance formulations was added to each hepatocyte incubation sample (250 μL), as appropriate, so that the final test substance concentration in the incubations was 10 μM or 1 μM, respectively, and incubations contained less than 1% (v/v) solvent.
Incubations were performed at ca. 37° C. in a shaking water bath (total incubation volume 0.5 mL). For 1 μM, incubations were terminated after 0, 5, 10, 20, 30, 60 and 120 minutes, by the addition of ice-cold acetonitrile (0.5 mL).
The samples were vortex mixed and centrifuged at ca 13,000 rpm for 10 minutes at room temperature. Following centrifugation, the protein-free supernatants were removed for analysis.
Blank control incubations were carried out with Leibovitz L-15 medium in place of the test substance. No cells control samples were performed with Leibovitz L-15 medium in place of hepatocytes. Aliquots of the blank control samples were taken at 120 minutes, while no cells control samples were taken at 0, 30 and 120 for 1 μM incubations and at 0 and 120 minutes for 10 μM incubations.
All 1 μM incubations were performed in duplicate, while all 10 μM incubations were performed in singlet. All samples were stored at −80° C. (nominal) prior to analysis.
Prior to sample analysis a 100 μL aliquot of each sample was evaporated to near dryness under a steady stream of nitrogen at room temperature, and subsequently reconstituted in 50 μL of mobile phase A (0.1% formic acid in water). Each sample (0, 30 and 120-minute, 10 μM) was analysed using accurate mass LC-MS to determine relative levels of parent compound at each time-point, and determine the profile of metabolites formed. Appropriate blank and control samples were also analysed. The 10 and 60-minute, 10 μM incubation samples were not analysed and were stored at −80° C. (nominal).
Data were interrogated for the presence of metabolites by comparison of retention times with the test substance reference standard and based on the accurate masses of potential metabolites using screening software (UNIFI version 1.9.4), and user defined search parameters. To confirm a suspected metabolite, the measured accurate mass of the peak detected in the sample used for structural elucidation had to be within 5 ppm of the theoretical mass in order to confirm the molecular formula.

human plasma protein = assay: Plasma binding of 5-MIAA; format: in vitro ADME
Description: Binding to human plasma protein was determined. Reported are the unbound fraction (fu) for three replicates as well as the mean unbound fraction, the standard deviation and the mean % recovery (Table 8).

human hepatocytes [2] = assay: Metabolic stability in Hμrel co-culture assay with human hepatocytes; details: for Disappearance with stromal cell controls: stromal cells
[3] = Pharmacokinetics of 5-MeO-DMT and bufotenine after inhalation; format: in vivo, human
Description: Blood samples were obtained at 1; 2; 4; 7; 10; 15; 20; 30; 45 min and 1; 1.5; 2; 3; 4 hours after administration.
PK parameters were generated by algebraic analysis of the concentration versus time plots for each individual. The analysis was carried out using the software Phoenix WinNonlin 6.3.

Structure (SMILES) | Relative Proportion of compounds identified (human hepatocytes [1]) | Presence in subsequent assays (human hepatocytes [1]) | Unbound fraction (fu) (human plasma protein; Replicate 1) | Unbound fraction (fu) (human plasma protein; Replicate 2) | Unbound fraction (fu) (human plasma protein; Replicate 3) | Disappearance with stromal cell controls (human hepatocytes [2]) | also measured
COc1ccc2[nH]cc(CC(=O)O)c2c1 [5-MIAA, 5-methoxyindole-3-acetic acid] | 61% | predominant metabolite | 0.499 | 0.462 | 0.544 | no disappearance | Plasma binding (mean fraction unbound) (human plasma protein): ~50%; Time until all traces are removed from circulation for urinary excretion (human plasma protein; assuming glomerular filtration rate of 90-120 ml/min): 1 to 2 h; Mean fu (human plasma protein; three replicates): 0.502; Half-life (human hepatocytes [2]; human hepatocytes, 1 μM): 15 400 min; In vitro intrinsic clearance (human hepatocytes [2]; human hepatocytes, 1 μM): 0.15 μl/min/million cells
COc1ccc2[nH]cc(CC[N+](C)(C)[O-])c2c1 [5-MeO-DMT-N-oxide] | 1% |  |  |  |  |  | 
CC(=O)CC(c1ccccc1)c1c(O)c2ccccc2oc1=O (stereo not shown) [Warfarin, reference compound] |  |  | 0.0418 | 0.0356 | 0.0358 |  | 
COc1ccc2[nH]cc(CCO)c2c1 [5-methoxytryptophol, 5-Methoxyindole-3-ethanol] | 25% | repeatedly failed to detect the presence |  |  |  | no disappearance | Time to complete disappearance (human hepatocytes [2]; in the presence of hepatocytes): 24 h
CN(C)CCc1c[nH]c2ccc(O)cc12 [bufotenine] | 5% |  |  |  |  |  | Detection in human serum ([3]; after administration of 5-MeO-DMT): barely detected; Bufotenine blood concentration ([3]; from 15 min onwards after 5-MeO-DMT, LLOQ): < 25 pg/mL
